Consider three compounds from patent US11891442B2, “Compositions and methods for treating age-related diseases” (priority 2017, dated 2024).

Common to all, as to format: cell-based, mouse
In test [1] the test system is BV2 cells. The test can be described thus: In vitro phagocytosis assay of pH-dependent fluorescent particles. The conditions noted are these: for Phagocytosis of pH-sensitive fluorescent beads by BV2 cells: WT BV2, time-lapse microscopy 24 hours, sialidase 400 nM 1 hour, 3Fax-Neu5Ac 32 uM; for Phagocytosis of pH-dependent fluorescent particles by BV2 cells: wild-type BV2, no serum or young serum prior to feeding, monitored over 24 hours. The procedure:
(§1) For in vitro phagocytosis assays, cells were split into a 24-well plate 8-24 hours prior to serum treatment at a density of 50,000 cells/well. Following specific treatments, wells were washed twice with PBS and fed pHrodo-labeled 3 μm amino-coated polystyrene particles (Polysciences) at a ratio of 10 particles per cell or crude myelin, isolated as previously described^47, at 1 mg/mL. pHrodo labeling was carried out as previously described to minimize background fluorescence^37. 4 phase and red fluorescent images per well were acquired every hour for 24 hours using the Incucyte S3 live cell analysis system (Essen Bioscience). For each time point, normalized phagocytosis was calculated using the following formula: red object area/phase confluence. To combine data from independent experiments, phagocytosis was calculated relative to control by setting phagocytosis at zero hours in the no serum control cell condition to 0, and this value at 24 hours to 1. Technical triplicates for each experiment were averaged, and the average of three independent experiments was reported.
For sialidase treatment, cells were incubated with 400 nM Vibrio cholerae sialidase for 1 hour at 37° C. in serum-free DMEM following serum treatment and prior to feeding. 3Fax-Neu5Ac (R&D) was used as previously described^33. The inhibitor was used at a concentration of 32 μM serially diluted in DMSO and used at a final concentration of 0.1% DMSO in DMEM. 3Fax-Neu5Ac was added with serum treatments for 48 hours prior to phagocytosis assays, and replaced in the feeding medium.
Cells were split into a 24-well plate 24 hours prior to feeding at a density of 50,000 cells/well in serum free medium. Following specific treatments, wells were washed twice with PBS and fed pHrodo-labeled 3 micron amino-coated polystyrene particles (Polysciences) at a ratio of 10 particles per cell. pHrodo labeling was carried out as previously described to minimize background fluorescence^37. 4 phase and red fluorescent images per well were acquired every hour for 24 hours using the Incucyte S3 live cell analysis system (Essen Bioscience). For each time point, normalized phagocytosis was calculated using the following formula: red object area/phase confluence. To combine data from independent experiments, phagocytosis relative to control was calculated by setting phagocytosis at zero hours in the control condition to 0, and this value at 24 hours to 1. Technical triplicates for each experiment were averaged, and the average of three independent experiments was identified.
Cells were incubated with 400 nM Vibrio cholerae sialidase for 1 hour at 37° C. in serum-free DMEM prior to phagocytosis. 3Fax-Neu5Ac (R&D) was used as previously described^58. The inhibitor was used at a concentration of 32 uM serially diluted in DMSO and used at a final concentration of 0.1% DMSO in DMEM. 3Fax-Neu5Ac was added with serum treatments for 48 hours prior to phagocytosis assays, and replaced in the feeding medium.

The subject of the next test is peritoneal macrophages. As to the kind of experiment: Peritoneal macrophage phagocytosis of pH-dependent fluorescent latex particles. The following applies: aged (20-month-old) compared to young (2-month-old) macrophages; sialidase. The procedure:
as §1
For sialidase treatment, cells were incubated with 400 nM Vibrio cholerae sialidase for 1 hour at 37° C. in serum-free DMEM following serum treatment and prior to feeding. 3Fax-Neu5Ac (R&D) was used as previously described^33. […]

The subject of test [2] is BV2 cells. The test can be described thus: Lectin (SNA, MAA) staining of cell-surface sialic acid by flow cytometry. The conditions noted are these: WT BV2 cells pretreated with sialidase. From the text:
Antibodies to CD11b (clone M1/70, BioLegend) and CD45 (clone 30-F11, Biolegend) were used for microglia identification (CD11b+CD45lo). For primary microglia immunophenotyping, the following lectins and antibodies were used: biotinylated Sambucus nigra agglutinin (SNA, Vector Labs), biotinylated Maackia amurensis agglutinins (MAA-1 and MAA-2, Vector), biotinylated Erythrina cristagalli lectin (ECL, EY Labs), biotinylated wheat germ agglutinin (WGA, Vector), recombinant mouse Siglec-E (R&D), recombinant mouse Siglec-F (R&D), antibodies to mouse Siglec-1 (clone REA197, Miltenyi Biotec), CD22 (clone OX-97, Biolegend), Siglec-E (clone M1304A01, Biolegend), Siglec-F (clone ES22-10D8, Miltenyi Biotec), Siglec-G (clone SH1, BD Biosciences), Siglec-H (clone 551, Biolegend), CD33 (clone 9A11, eBioscience), Galectin-3 (clone M3/38, Biolegend). For immunostaining, cells were passed through a 100 μm strainer, blocked for 10 minutes on ice with mouse Fc-blocking reagent (BD), and stained for 30 minutes on ice in DPBS containing calcium and magnesium supplemented with 1% bovine serum albumin. […] Data was analyzed using FlowJo software (TreeStar).
Antibodies to CD11b (clone M1/70, BioLegend) and CD45 (clone 30-F11, Biolegend) were used for microglia identification (CD11b+CD45lo). […] Data was analyzed using FlowJo software (TreeStar).
(In general: Flow cytometry measures light scatter and fluorescence of single cells or particles in a stream.)

In another test the test system is primary microglia. The test can be described thus: Ex vivo microglial phagocytosis assay. How it is done:
Whole brain myelin-depleted single-cell suspensions were prepared as described above. Next, a rough estimation of microglia counts from each brain was determined by strictly gating a volume-designated aliquot of the suspensions by forward scatter/side scatter on a flow cytometer (BD Accuri C6). Each suspension was adjusted to contain equal numbers of microglia per unit volume. Then, single cell brain suspensions were treated with sialidase, a CD22 blocking antibody (R&D), or no treatment for 1 hour at 37° C. with periodic agitation. Treatments were washed out and cells were resuspended in FACS buffer containing pHrodo- or CypHer5E-conjugated particles at a ratio of 50 particles per microglia. The cell-particle mixture was incubated for 1-2 hours at 37° C. with periodic agitation. Phagocytosis was stopped by transferring the suspensions to ice, where the cells were stained with antibodies to distinguish microglia. Microglial phagocytosis was assessed by flow cytometry by pre-gating live CD11b+CD45lo cells and assessing pH dependent particle fluorescence within this population. The eating gate was determined using an unfed control, and confirmed by sorting an aliquot of the sample into noneating and eating populations by FACS followed by microscopic assessment.
Whole brain myelin-depleted single-cell suspensions were prepared as described above. Next, a rough estimation of microglia counts from each brain was determined by strictly gating a volume-designated aliquot of the suspensions by forward scatter/side scatter on a flow cytometer (BD Accuri C6). Each suspension was adjusted to contain equal microglia per unit volume. Then, single cell brain suspensions were treated accordingly for 1 hour in serum free DMEM-F12 at 37° C. with periodic agitation. Treatments were washed out and cells were resuspended in FACS buffer containing pHrodo- or CypHer5E-conjugated particles at a ratio of 50 particles per microglia. The cell-particle mixture was incubated for 1-2 hours at 37° C. with periodic agitation. Phagocytosis was stopped by transferring the suspensions to ice, where the cells were stained with antibodies to distinguish microglia. Microglial phagocytosis was assessed by flow cytometry by pre-gating live CD11b+CD45lo cells and assessing pH-dependent particle fluorescence within this population. The eating gate was determined using an unfed control, and confirmed by sorting an aliquot of the sample into non-eating and eating populations by FACS followed by microscopic assessment.

Entries after “also recorded” stand apart in the source; their conditions may differ.

With `COC(=O)C1(OC(C)=O)OC([C@H](OC(C)=O)[C@@H](COC(C)=O)OC(C)=O)C(NC(C)=O)C(OC(C)=O)C1F` (stereo partly drawn) [3Fax-Neu5Ac, reference compound], in the test on BV2 cells [1], the “Phagocytosis of pH-sensitive fluorescent beads by BV2 cells” value was “promotes phagocytosis in BV2 cells” and the “Phagocytosis of pH-dependent fluorescent particles by BV2 cells” value is recorded as “promoted phagocytosis in the no serum condition only”.
`C=C1[C@@H](C)[C@H]2[C@H](Cc3ccccc3)NC(=O)[C@]23[C@H](OC(C)=O)/C=C/[C@@](C)(O)C(=O)[C@@H](C)C/C=C/[C@H]3[C@@H]1O` [cytochalasin D, reference compound]: in the test on BV2 cells [1] (1 hour of feeding, used to define eating gate), the “Engulfment of pH-dependent beads by BV2 cells (flow cytometry)” value was “actin polymerization is blocked preventing engulfment”.
Turning to “sialidase: Sialidase from Vibrio cholerae expressed in Escherichia coli C600; removes cell-surface sialic acid”, the “Phagocytosis by peritoneal macrophages” value with peritoneal macrophages is on record as “increased phagocytosis dramatically in aged macrophages”. Moreover, the “Phagocytosis of pH-sensitive fluorescent beads by CD22 KO BV2 cells” value with BV2 cells [1] (CD22 KO BV2 + sialidase) is listed as “completely abrogated in the absence of CD22”. In the test on BV2 cells [1], the “Phagocytosis of pH-sensitive fluorescent beads by BV2 cells” value is “promotes phagocytosis in BV2 cells” and the “Phagocytosis of pH-dependent fluorescent particles by BV2 cells” value is given as “promote phagocytosis in the absence of young serum”. Besides, the “SNA and MAA ligand expression on the cell surface” value in the test with BV2 cells [2] was “reduce sialic acid ligands on the cell surface”. The “Ex vivo phagocytosis by microglia from aged CD22−/− mice” value in the test with primary microglia (aged (18 m.o.) CD22−/−) is listed as “had no effect in CD22−/− microglia”. In the test on primary microglia (aged WT mice, 1 hour pretreatment, flow cytometry), the “Ex vivo phagocytosis of latex particles by aged microglia” value is recorded as “rescued phagocytosis in aged microglia; also recorded: promoted phagocytosis in WT microglia”. Also, in the test with primary microglia (relative to age-matched wild-type control microglia), the “Ex vivo phagocytosis by microglia from 12-month-old CD22−/− mice” value was “reduced pro-phagocytic response to sialidase”. The “Ex vivo phagocytosis of latex particles by young microglia” value in the test on primary microglia (young (2-month-old) mice) is reported as “did not enhance phagocytosis in already competent young microglia”.
